Assay results: patent US11744830B2, “Ameliorative agent for cytokine release syndrome and so on” (TORII PHARMACEUTICAL CO., LTD., priority 2018, dated 2023)

Experiments:
Type in all cases: cell-based, human
[1] = tested on: MCP-1 production; assay: CRS toxicity evaluation system using CAR-T cells: MCP-1; conditions: CRS toxicity evaluation system using CAR-T cells
Experimental: (§1) The supernatants were collected at 72 hours after the initiation of culture, and various cytokines in each supernatant were measured by FACS multiplex assay.

[2] = tested on: IL-1β production in CD14^+ cells; assay: LPS stimulation-induced IL-1β production in CD14^+ cells; conditions: LPS
Experimental: (§2) Cryopreserved PBMCs were quickly thawed in a 37° C. thermostat and added to a tube containing medium. After centrifugation (at room temperature at 300 g for 10 minutes) to remove the supernatant, the cells were suspended again in the medium, followed by counting the number of viable cells. The cell suspension was centrifuged (at room temperature at 300 g for 10 minutes) to remove the supernatant, followed by addition of MACS Buffer to suspend the cells, to which Human CD14 MicroBeads were further added. After being allowed to stand on ice for 15 minutes, the cell suspension was diluted with MACS Buffer and centrifuged (at room temperature at 300 g for 10 minutes) to remove the supernatant. MACS Buffer was added to the tube, and the cells were suspended and then applied to a separatory column to separate CD14^+ cells. The CD14^+ cell fraction was diluted with the medium and then centrifuged (at room temperature at 300 g for 10 minutes). The supernatant was removed and the cells were suspended in the medium (1 mL), followed by counting the number of viable cells. The cell suspension was adjusted with the medium to 2.4×10^5 or 3×10^5 cells/mL and seeded in a 96-well plate (2.4×10^4 cells/well), which was then allowed to stand in a CO2 incubator for 1 to 2 hours.
The culture supernatants collected in 1.2.10 were quantified for IL-1β using Human IL-1β DuoSet ELISA.

[3] = tested on: IL-8 production; assay: CRS toxicity evaluation system using CAR-T cells: IL-8; conditions: CRS toxicity evaluation system using CAR-T cells
Experimental: as §1

[4] = tested on: TNF-α production; assay: CRS toxicity evaluation system using CAR-T cells: TNF-α; conditions: CRS toxicity evaluation system using CAR-T cells
Experimental: as §1

[5] = tested on: VEGF production from macrophages; assay: LPS stimulation-induced VEGF production in macrophages; conditions: Macrophages, LPS
Experimental: CD14^+ cells were cultured in 20 ng/mL M-CSF-containing RPMI medium at 37° C. for 5 days to induce differentiation into macrophages (during which the medium was replaced once every two days with fresh 20 ng/mL M-CSF-containing RPMI medium). […] The macrophages were then stimulated with LPS (final concentration: 100 ng/mL) or RPMI medium alone at 37° C. for 3 days, followed by collecting the culture supernatants. The collected culture supernatants were quantified for VEGF using Human VEGF DuoSet ELISA.

[6] = tested on: IL-1β production; assay: CRS toxicity evaluation system using CAR-T cells: IL-1β; conditions: CRS toxicity evaluation system using CAR-T cells
Experimental: as §1

[7] = tested on: IL-18 production from LPS-pretreated CD14^+ cells; assay: ATP stimulation-induced IL-18 production from LPS-pretreated CD14^+ cells; conditions: LPS-pretreated CD14^+ cells, ATP
Experimental: Cryopreserved PBMCs were quickly thawed in a 37° C. thermostat and added to a tube containing medium. After centrifugation (at room temperature at 300 g for 10 minutes) to remove the supernatant, the cells were suspended again in the medium, followed by counting the number of viable cells. The cell suspension was centrifuged (at room temperature at 300 g for 10 minutes) to remove the supernatant, followed by addition of MACS Buffer to suspend the cells, to which Human CD14 MicroBeads were further added. After being allowed to stand on ice for 15 minutes, the cell suspension was diluted with MACS Buffer and centrifuged (at room temperature at 300 g for 10 minutes) to remove the supernatant.
MACS Buffer was added to the tube, and the cells were suspended and then applied to a separatory column to separate CD14^+ cells. The CD14^+ cell fraction was diluted with the medium and then centrifuged (at room temperature at 300 g for 10 minutes). The supernatant was removed and the cells were suspended in the medium (1 mL), followed by counting the number of viable cells. The cell suspension adjusted with the medium to 2×10^6 cells/mL was seeded in a 96-well plate (1×10^5 cells/well) and allowed to stand in a CO2 incubator for 1 to 2 hours. […] The cells were then stimulated with LPS (final concentration: 500 ng/mL) for 6 hours at 37° C. and an ATP solution (final concentration: 5 mM) was added thereto, and the 96-well plate was further allowed to stand in a CO2 incubator for 2 hours to collect the culture supernatants.
The collected culture supernatants were quantified for IL-18 using Human IL-18 DuoSet ELISA.

[8] = tested on: OPN production from CD14^+ cells; assay: LPS stimulation-induced OPN production in CD14^+ cells; conditions: LPS
Experimental: as §2
The collected culture supernatants were quantified for OPN using Human OPN DuoSet ELISA.

Tocilizumab: interleukin (IL)-6R antibody (tocilizumab) approved at the same time as CAR-T cell therapy
no suppressive effect: suppressive effect on MCP-1 production [1] | suppressive effect on IL-1β production [2] | suppressive effect on IL-8 production [3] | suppressive effect on TNF-α [4] | effect on VEGF production from macrophages [5] | suppressive effect on IL-1β [6] | suppressive effect on IL-18 production [7] | suppressive effect on OPN production [8]
